In US20120276560A1, “BIOMARKERS FOR ASSESSING SIALIC ACID DEFICIENCIES” (priority 2010, published 2012):

Legend:
[1] = test system: mice homozygous for the M712T Gne mutation; details: ManNAc in water to mutant mice; Galeano et al. 2007; cited from earlier work
[2] = test system: PSA-NCAM; assay: Western blot of serum PSA-NCAM (RNL-1 antibody) in HIBM patient on ManNAc; type: in vivo, human; details: serum of ManNAc self-treated HIBM patient (2 years), FIG. 3 lane 7
Protocol: (§1) Serum samples from normal individuals, HIBM patients before treatment, patients suffering from myopathy but not HIBM, and a HIBM patient on ManNAc therapy for 2 years were purified to reduce serum proteins. The samples were subjected to SDS PAGE and stained with a monoclonal antibody to NCAM (RNL-1, SantaCruz Biotech, Inc., CA) capable of detecting sialylated and unsialylated forms of NCAM (FIGS. 2 and 3). As a control, serum samples from healthy individuals were prepared as described above and treated with sialidase to remove sialic acid.
(§2) For Western blotting, serum protein was extracted from 50 ul serum samples using Mem-PER® Eukaryotic Membrane Protein Extraction Reagent Kit (Thermo Scientific), then the hydrophilic (top) layer was cleaned and purified by SDS-PAGE Sample Prep Kit (Thermo Scientific). Final protein concentration was measured by BradfordUltra (Expedeon), and […] protein (15 uL) loaded per lane for electrophoresis separation. […] Primary (RNL-1, SantaCruz Biotech, Inc., CA) and secondary antibodies were applied, and detected using horseradish peroxidase (HRP) chemi-luminescence substrate (FIG. 3). […]
(§3) For desialylated control sample, serum protein from healthy non-myopathic individuals was treated with Vibrio cholerae neuroaminidase (Sigma) (FIG. 3, lane 8). HIBM patients who were routinely ingesting N-Acetylmannosamine (ManNAc) were analyzed as well (FIG. 3, lane 7).

[3] = test system: Gne^−/− hGNED176V-Tg mice; details: administration in water; Malicdan et al. 2009; cited from earlier work
[4] = test system: PSA-NCAM; assay: Sialidase treatment of normal human serum, Western blot with RNL-1 antibody; type: biochemical; details: normal human serum treated with sialidase
Protocol: as §1, §2, §3

[5] = test system: PSA-NCAM; assay: Neuraminidase digestion of normal human serum, Western blot with 123C3 antibody; type: biochemical; details: 37° C. 4 hours, 1 m unit enzyme per 3 μg protein, FIG. 4A lane 2, estimated
Protocol: Experiments were performed to determine whether PSA-NCAM can be detected in human serum using well-defined mouse monoclonal antibodies raised against human PSA-NCAM (123C3). Human serum was purified by Aurum serum protein kit (Bio-Rad) to remove albumin and IgG which can interfere with SDS-PAGE analysis. Raw serum was diluted 4 times with protein binding buffer (supplied in the kit) and applied to the column. The albumin/IgG depleted serum was eluted by centrifugation at 10,000 g for 20 seconds and protein concentration was determined by modified Lowry assay (Bio-Rad DC protein assay).
Purified serum was incubated in neuraminidase from Vibrio cholera (Sigma) at 37° C. for 4 hours in order to cleave sialic acid (SA) from serum polysialic acid-glycoproteins, including PSA-NCAM. Digestion was carried out at a concentration of 1 m unit enzyme per 3 μg of protein in 20 mM Tris buffer, pH 5.8. A negative control was included in the experiment under the same condition but without adding the neuraminidase. At the end of incubation, the mixture was cleaned up with micro bio-spin P30 columns (BioRad).
Proteins were analyzed on 10% denaturing Tris-glycine SDS-PAGE gel (Invitrogen) under reducing condition. […]

[6] = test system: PSA-NCAM; assay: Neuraminidase digestion of normal human serum, Western blot with C-20 polyclonal antibody; type: biochemical; details: 37° C. 4 hours, 0.35 m unit enzyme per μl serum, FIG. 5 lane 5
Protocol: Experiments were performed to investigate the pattern of serum PSA-NCAM sialylation between normal controls and HIBM patients using a polyclonal antibody raised against human PSA-NCAM. Human serum was purified by a two-steps protocol to enrich PSA-NCAM. Raw sera from both normal human and HIBM patient were extracted by Mem-PER® membrane protein extraction kit (Thermo Scientific) according to the manufacturer's protocol. Serum was first mixed with a detergent and then a second detergent was added to solubilize membrane proteins. After centrifugation at 10,000 g for 3 minutes, the mixture was incubated at 37° C. to separate hydrophobic proteins from hydrophilic proteins through phase partitioning. The top hydrophilic layer was then further purified by SDS-PAGE sample prep kit (Thermo Scientific) to remove detergents and other contaminants that interfere with SDS-PAGE analysis.
Purified serum was incubated with Vibrio cholera neuraminidase (Sigma) at 37° C. for 4 hours in order to cleave sialic acid (SA) from serum polysialic acid-glycoproteins, including PSA-NCAM. Digestion was carried out at a concentration of 0.35 m unit enzyme per μl of serum. […]
Proteins were analyzed on a 10% Mini-Protean precast gel (BioRad) under reducing condition with 5% 2-mercaptoethanol. Final protein concentration was measured by Bradford Ultra (Expedeon). […]

## CC(=O)N[C@@H]1C(O)O[C@H](CO)[C@@H](O)[C@@H]1O (some centres unmarked) [ManNAc, N-acetylmannosamine]
[1]
  renal histology (podocyte foot processes): improved renal histology
  sialylation of brain PSA-NCAM: increased sialylation of brain PSA-NCAM
  sialylation of renal podocalyxin: increased sialylation of renal podocalyxin
  survival: improved survival
[2]
  PSA-NCAM signal at ˜150 kD band on Western blot: improved signal
[3]
  muscle atrophy and weakness: reduced or prevented

## neuraminidase: neuraminidase from Vibrio cholera (Sigma), used to cleave sialic acid from serum glycoproteins
[4]
  upper and middle PSA-NCAM bands on Western blot: disappeared
[5]
  reduction of molecular weight of the PSA-NCAM triplet: 10-15 kDa
[6]
  intensity of the 130 kDa and 60 kDa PSA-NCAM bands: significantly reduced in intensity

## CC(=O)N[C@H]1[C@H]([C@H](O)[C@H](O)CO)OC(O)(C(=O)O)C[C@@H]1O (some centres unmarked) [sialic acid, 5-N-acetylneuraminic acid]
[3]
  muscle atrophy and weakness: reduced or prevented

## sialyl-lactose
[3]
  muscle atrophy and weakness: reduced or prevented
